Source: ChEMBL document CHEMBL1201862, “PubChem BioAssay data set” (2004)
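Following 48 hours of exposure in 96-well plates, responses at five concentrations were used to interpolate endpoints linearly. GI50 marks 50% less growth.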 The source made the active and inactive calls. No stated cut-off is given here; in the data, active = GI50 up to about 1.1 µM and inactive = higher.

Experiments:
Assay in all cases: DTP human tumour cell line panel, 48 h
MOLT-4 = tested on: MOLT-4
HT-29 = tested on: HT-29
NCI/ADR-RES = tested on: NCI/ADR-RES
MDA-MB-435 = tested on: MDA-MB-435
SK-MEL-2 = tested on: SK-MEL-2
A549 = tested on: A549
KM12 = tested on: KM12
U-251 = tested on: U-251
OVCAR-3 = tested on: OVCAR-3
SK-MEL-5 = tested on: SK-MEL-5
SF-539 = tested on: SF-539
DU-145 = tested on: DU-145
LOX IMVI = tested on: LOX IMVI
HCT-15 = tested on: HCT-15
NCI-H23 = tested on: NCI-H23
OVCAR-4 = tested on: OVCAR-4
COLO 205 = tested on: COLO 205
NCI-H522 = tested on: NCI-H522
PC-3 = tested on: PC-3
SNB-75 = tested on: SNB-75
BT-549 = tested on: BT-549
SW-620 = tested on: SW-620
T47D = tested on: T47D
SNB-19 = tested on: SNB-19
UO-31 = tested on: UO-31
RXF 393 = tested on: RXF 393
HCC 2998 = tested on: HCC 2998
UACC-257 = tested on: UACC-257
SK-MEL-28 = tested on: SK-MEL-28
M14 = tested on: M14
ACHN = tested on: ACHN
HCT-116 = tested on: HCT-116
HOP-62 = tested on: HOP-62
OVCAR-5 = tested on: OVCAR-5
EKVX = tested on: EKVX
MDA-N = tested on: MDA-N
786-0 = tested on: 786-0
SF-268 = tested on: SF-268
TK-10 = tested on: TK-10
SF-295 = tested on: SF-295
RPMI-8226 = tested on: RPMI-8226
OVCAR-8 = tested on: OVCAR-8
NCI-H226 = tested on: NCI-H226
CAKI-1 = tested on: CAKI-1
MCF7 = tested on: MCF7
SR = tested on: SR
SN12C = tested on: SN12C
Malme-3M = tested on: Malme-3M
SK-OV-3 = tested on: SK-OV-3
Hs-578T = tested on: Hs-578T
UACC-62 = tested on: UACC-62
MDA-MB-231 = tested on: MDA-MB-231
A498 = tested on: A498
K562 = tested on: K562
HOP-92 = tested on: HOP-92
IGROV-1 = tested on: IGROV-1
CCRF-CEM = tested on: CCRF-CEM
HL-60 = tested on: HL-60
NCI-H460 = tested on: NCI-H460

Compound: CCOC(=O)C1(F)S(=O)(=O)OCCOS1(=O)=O
- GI50 (MOLT-4): > 100 µM (inactive)
- GI50 (HT-29): > 100 µM (inactive)
- GI50 (NCI/ADR-RES): > 100 µM (inactive)
- GI50 (MDA-MB-435): > 100 µM (inactive)
- GI50 (SK-MEL-2): > 100 µM (inactive)
- GI50 (A549): > 100 µM (inactive)
- GI50 (KM12): > 100 µM (inactive)
- GI50 (U-251): > 100 µM (inactive)
- GI50 (OVCAR-3): > 100 µM (inactive)
- GI50 (SK-MEL-5): > 100 µM (inactive)
- GI50 (SF-539): > 100 µM (inactive)
- GI50 (DU-145): > 100 µM (inactive)
- GI50 (LOX IMVI): > 100 µM (inactive)
- GI50 (HCT-15): > 100 µM
- GI50 (NCI-H23): > 100 µM (inactive)
- GI50 (OVCAR-4): > 100 µM (inactive)
- GI50 (COLO 205): > 100 µM (inactive)
- GI50 (NCI-H522): > 100 µM (inactive)
- GI50 (PC-3): > 100 µM (inactive)
- GI50 (SNB-75): > 100 µM (inactive)
- GI50 (BT-549): > 100 µM (inactive)
- GI50 (SW-620): > 100 µM (inactive)
- GI50 (T47D): > 100 µM (inactive)
- GI50 (SNB-19): > 100 µM (inactive)
- GI50 (UO-31): > 100 µM (inactive)
- GI50 (RXF 393): > 100 µM (inactive)
- GI50 (HCC 2998): > 100 µM (inactive)
- GI50 (UACC-257): > 100 µM (inactive)
- GI50 (SK-MEL-28): > 100 µM (inactive)
- GI50 (M14): > 100 µM (inactive)
- GI50 (ACHN): > 100 µM (inactive)
- GI50 (HCT-116): > 100 µM (inactive)
- GI50 (HOP-62): > 100 µM (inactive)
- GI50 (OVCAR-5): > 100 µM (inactive)
- GI50 (EKVX): > 100 µM (inactive)
- GI50 (MDA-N): > 100 µM (inactive)
- GI50 (786-0): > 100 µM (inactive)
- GI50 (SF-268): > 100 µM (inactive)
- GI50 (TK-10): > 100 µM (inactive)
- GI50 (SF-295): > 100 µM (inactive)
- GI50 (RPMI-8226): > 100 µM (inactive)
- GI50 (OVCAR-8): > 100 µM (inactive)
- GI50 (NCI-H226): > 100 µM (inactive)
- GI50 (CAKI-1): > 100 µM (inactive)
- GI50 (MCF7): > 100 µM (inactive)
- GI50 (SR): > 100 µM (inactive)
- GI50 (SN12C): > 100 µM (inactive)
- GI50 (Malme-3M): > 100 µM (inactive)
- GI50 (SK-OV-3): > 100 µM (inactive)
- GI50 (Hs-578T): 93.3 µM (inactive)
- GI50 (UACC-62): > 100 µM (inactive)

Compound: CN(NC(=O)c1cccs1)C1=NCCCCN1
- GI50 (MDA-MB-231): > 100 µM (inactive)
- GI50 (MOLT-4): > 100 µM (inactive)
- GI50 (HT-29): > 100 µM (inactive)
- GI50 (NCI/ADR-RES): > 100 µM (inactive)
- GI50 (MDA-MB-435): > 100 µM (inactive)
- GI50 (SK-MEL-2): > 100 µM (inactive)
- GI50 (A549): > 100 µM (inactive)
- GI50 (KM12): > 100 µM (inactive)
- GI50 (U-251): > 100 µM (inactive)
- GI50 (OVCAR-3): > 100 µM (inactive)
- GI50 (A498): > 100 µM (inactive)
- GI50 (SK-MEL-5): > 100 µM (inactive)
- GI50 (K562): > 100 µM (inactive)
- GI50 (SF-539): > 100 µM (inactive)
- GI50 (LOX IMVI): > 100 µM (inactive)
- GI50 (HCT-15): > 100 µM
- GI50 (NCI-H23): > 100 µM (inactive)
- GI50 (OVCAR-4): > 100 µM (inactive)
- GI50 (HOP-92): > 100 µM (inactive)
- GI50 (COLO 205): > 100 µM (inactive)
- GI50 (NCI-H522): > 100 µM (inactive)
- GI50 (PC-3): > 100 µM (inactive)
- GI50 (SNB-75): > 100 µM (inactive)
- GI50 (BT-549): > 100 µM (inactive)
- GI50 (IGROV-1): > 100 µM (inactive)
- GI50 (SW-620): > 100 µM (inactive)
- GI50 (T47D): > 100 µM (inactive)
- GI50 (SNB-19): > 100 µM (inactive)
- GI50 (UO-31): > 100 µM (inactive)
- GI50 (RXF 393): > 100 µM (inactive)
- GI50 (HCC 2998): > 100 µM (inactive)
- GI50 (UACC-257): > 100 µM (inactive)
- GI50 (SK-MEL-28): > 100 µM (inactive)
- GI50 (CCRF-CEM): > 100 µM (inactive)
- GI50 (M14): > 100 µM (inactive)
- GI50 (ACHN): > 100 µM (inactive)
- GI50 (HL-60): > 100 µM (inactive)
- GI50 (HCT-116): > 100 µM (inactive)
- GI50 (HOP-62): > 100 µM (inactive)
- GI50 (OVCAR-5): > 100 µM (inactive)
- GI50 (EKVX): > 100 µM (inactive)
- GI50 (MDA-N): > 100 µM (inactive)
- GI50 (NCI-H460): > 100 µM (inactive)
- GI50 (786-0): > 100 µM (inactive)
- GI50 (SF-268): > 100 µM (inactive)
- GI50 (TK-10): > 100 µM (inactive)
- GI50 (SF-295): > 100 µM (inactive)
- GI50 (RPMI-8226): > 100 µM (inactive)
- GI50 (OVCAR-8): > 100 µM (inactive)
- GI50 (NCI-H226): > 100 µM (inactive)
- GI50 (MCF7): > 100 µM (inactive)
- GI50 (SR): > 100 µM (inactive)
- GI50 (Malme-3M): > 100 µM (inactive)
- GI50 (SK-OV-3): > 100 µM (inactive)
- GI50 (Hs-578T): > 100 µM (inactive)
- GI50 (UACC-62): > 100 µM (inactive)
